Results published in patent US9320698B2, “Peptide tyrosinase inhibitors and uses thereof” (Escape Therapeutics, Inc., priority 2011, dated 2016).
Values belong to the molecule of their own block, whether it stands above or below them. No end group written: not given here.

Experiments:
[1] = tested on: primary human fibroblasts; details: 6 d, 30 μM
Method: (§1) Cells were seeded at equal numbers and incubated with varying concentrations of test samples for 1 day, 3 days and 6 days, harvested, stained with trypan blue, and then counted. The assay was carried out in triplicate, and the % cell death was calculated according to the formula shown in Examples.
(§2) Cellular toxicity was measured using a trypan blue dye exclusion assay. Cells were cultured in 6-well plates at a density of 4×10^5 cells/well for 1, 3, or 6 d in 2 ml of medium. […] The plates were incubated at 37° C. in a humidified 5% CO2 chamber, harvested at the appropriate time, treated with trypan blue, and then counted using a hemacytometer. Cytotoxicity was measured according to the following formula: [1−(# of cells in control−# of live cells in test sample)/# of cells in control]×100%.
(§3) The cytotoxic effect of P16-18 on primary human melanocytes, keratinocytes, and fibroblasts were then assessed at 1, 3, and 6 d using trypan blue exclusion.

[2] = tested on: primary human keratinocytes; details: 6 d
Method: as §1, §2, §3

[3] = tested on: primary human melanocytes; details: 6 d
Method: as §1, §2, §3

human tyrosinase = biological target: T1, human tyrosinase (Homo sapiens, UniProt P14679); test: Inhibition of freshly extracted human tyrosinase, L-dopa as substrate; assay type: biochemical; details: at 200 μM
T1 construct: cells were harvested and lysed using 1% Triton X-100 in 0.067 M potassium phosphate buffer (pH 6.8); endogenous in cells; host or cells: primary human melanocytes (gift from Dr. Todd Ridky, Stanford), clarified Triton X-100 lysate
T1 sequence (P14679 19-529): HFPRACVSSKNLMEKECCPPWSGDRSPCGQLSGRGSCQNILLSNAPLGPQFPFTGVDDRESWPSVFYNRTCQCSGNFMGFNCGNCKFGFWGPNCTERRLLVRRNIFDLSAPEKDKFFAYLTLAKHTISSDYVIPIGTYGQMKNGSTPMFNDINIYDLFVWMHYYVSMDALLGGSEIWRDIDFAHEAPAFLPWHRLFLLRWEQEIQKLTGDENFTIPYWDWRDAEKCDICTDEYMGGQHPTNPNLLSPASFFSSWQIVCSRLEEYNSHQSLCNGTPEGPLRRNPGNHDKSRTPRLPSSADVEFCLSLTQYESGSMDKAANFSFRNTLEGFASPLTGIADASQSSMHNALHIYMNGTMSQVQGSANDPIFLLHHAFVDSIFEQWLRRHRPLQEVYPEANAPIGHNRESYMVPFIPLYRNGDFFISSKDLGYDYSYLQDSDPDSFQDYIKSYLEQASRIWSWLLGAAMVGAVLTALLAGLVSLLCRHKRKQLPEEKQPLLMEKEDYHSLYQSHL

[4] = tested on: primary human fibroblasts; details: 72 h
Method: (§4) The three cell types were incubated with varying concentrations of the test compounds for 72 h at 37° C. and then processed using the MTT assay. Data are presented as % toxicity relative to the control as a function of concentration, and plotted as means±S.E of 5 independent trials. **p<0.01.
(§5) Keratinocytes, fibroblast, and melanocyte proliferation rates were determined using a TACS® MTT Cell Proliferation Kit (R&D systems, Minneapolis, Minn.). Cells were plated at 2.5×10^4/well in 96-well plates in a humidified atmosphere with 5% CO2 at 37° C. Twenty-four h after plating, test samples were added and cultures were incubated for an additional 72 h. The remainder of the procedure was performed following the manufacturer's protocol.
(§6) Proliferation rates were then assessed at 3 d using an MTT assay.

[5] = tested on: primary human keratinocytes; details: 72 h
Method: as §4, §5, §6

[6] = tested on: primary human melanocytes; details: 72 h
Method: as §4, §5, §6

MNTI cells = test: Melanin content measurement in MNTI cells; assay type: cell-based, human; details: 50 μM HQ, 3 days
mushroom tyrosinase [7] = biological target: T2, mushroom tyrosinase (Agaricus bisporus, UniProt C7FF04); test: Kinetic studies of mushroom tyrosinase (Lineweaver-Burk, nonlinear regression); assay type: biochemical
T2 sequence (C7FF04 1-392): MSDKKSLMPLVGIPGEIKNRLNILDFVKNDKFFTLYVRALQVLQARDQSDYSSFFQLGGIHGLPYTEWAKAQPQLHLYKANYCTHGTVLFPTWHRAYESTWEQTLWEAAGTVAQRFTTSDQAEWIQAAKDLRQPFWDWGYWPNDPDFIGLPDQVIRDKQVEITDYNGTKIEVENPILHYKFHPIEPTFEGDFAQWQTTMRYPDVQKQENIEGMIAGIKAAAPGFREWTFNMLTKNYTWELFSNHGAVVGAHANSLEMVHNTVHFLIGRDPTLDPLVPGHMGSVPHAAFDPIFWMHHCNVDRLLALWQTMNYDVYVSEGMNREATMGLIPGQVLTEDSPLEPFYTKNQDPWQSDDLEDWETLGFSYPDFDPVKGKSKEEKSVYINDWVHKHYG
T2 sequence (G1K3P4 entry or part of it, further chain): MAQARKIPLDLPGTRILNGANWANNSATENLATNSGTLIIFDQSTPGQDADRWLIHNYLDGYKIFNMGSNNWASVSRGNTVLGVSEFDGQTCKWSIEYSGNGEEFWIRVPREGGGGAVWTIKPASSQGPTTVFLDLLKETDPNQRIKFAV
Method: The concentration of mushroom tyrosinase [E] was 24 units/ml. […] [I] ranged from 0 to 0.3 mM. Data were obtained as mean values of 1/V, inverse of the increase of absorbance at wavelength of 475 nm per minute (ΔA475/min) for 5 independent trials. Michaelis Menten constant (Km) and the dissociation constant Ki were derived using nonlinear regression analysis with GraphPad Prism 5.
Experiments were conducted using the same protocol as above except for changes in concentration of [E], [S] and [I]. [E] was 24 units/ml, [S] was 0.05, 0.1, 0.25, 0.5, 0.75 and 1 mM, and [I] was 0, 0.03, 0.1, 0.3 and 1 mM. Lineweaver-Burk reciprocal plots were generated to determine the mode of inhibition (Burk, D., Lineweaver, H., and Horner, C. K. (1934) J Bacteriol 27, 325-340), and Michaelis Menten plots were used to determine Vmax and Km. Nonlinear regression using GraphPad Prism 5 software was used to determine Ki. Prism calculates the Ki using the equation of Cheng, Y., and Prusoff, W. H. (1973) Biochem Pharmacol 22, 3099-3108.

tyrosinase = details: read-out: published IC50; published value; cited from earlier work
[8] = tested on: melanocytes, keratinocytes and fibroblasts; details: for oligopeptides a minimum ratio (3 mM / IC50)
Excerpt: An ideal therapeutic agent should have a ratio that is higher than two to be considered safe for long-term use in humans.

mushroom tyrosinase [9] = biological target: T2, mushroom tyrosinase; test: Enzymatic assay of mushroom tyrosinase, L-tyrosine as substrate; assay type: biochemical
Method: The assay mixture was incubated at 37° C.
In order to assess this potential, their inhibitory activity against mushroom tyrosinase was tested.

Molecule: Oc1ccc(O)cc1 [HQ, hydroquinone]
cell death [1]: 60±2%
cell death ([2]; 300 μM): 42±3%
rate of cell death ([2]; 3 mM): 77±4%
melanocyte cell death ([3]; 20 μM): 50±3%
cell death ([3]; 30 μM): 70±3%
cytotoxicity / cell death ([3]; 100 μM): 100%
human tyrosinase activity reduced by (human tyrosinase): 5%
reduction in proliferation rate ([4]; 100 μM): 45±2%
proliferation inhibited by ([4]; 3 mM): over 90%
reduction in proliferation rate ([5]; 100 μM): 30±3%
proliferation inhibited by ([5]; 3 mM): up to 63±3%
reduction in proliferation rate ([6]; 100 μM): 50±3%
proliferation inhibited by ([6]; 3 mM): over 90%
melanin content reduced by (MNTI cells): 50±4%
Nature of inhibition (mushroom tyrosinase [7]; Table 4, from Lineweaver Burk plots): competitive
IC50 (tyrosinase): ~700 µM
ratio of 50% cytotoxic concentration to IC50 [8]: significantly less than one

Molecule: RRFVCC (chains of the parent or of the whole protein) [Peptide P15]
Ki (mushroom tyrosinase [7]; Table 4, mushroom tyrosinase): 167 ± 11 µM
IC50 (mushroom tyrosinase [9]; Table 4, mushroom tyrosinase): 1120 ± 50 µM
IC50 (mushroom tyrosinase [9]; mushroom tyrosinase): 1100 µM

Molecule: RRFVCC [Peptide P15]
tyrosinase inhibition (in words) (mushroom tyrosinase [9]; mushroom tyrosinase): weak inhibition

Molecule: RRFVLL [Peptide P14]
IC50 (mushroom tyrosinase [9]; mushroom tyrosinase): 1800 µM

human tyrosinase activity reduced by (human tyrosinase): 12%
Molecule: RRRYWYYR [Peptide P17]

human tyrosinase activity reduced by (human tyrosinase): 30%
Molecule: RRWWRRYY [Peptide P16]

human tyrosinase activity reduced by (human tyrosinase): 25%
Molecule: RRYWYWRR [Peptide P18]
